Tests used:
ER-α in MCF-7 cells = molecular target: T1, ER-α in MCF-7 cells (Homo sapiens, UniProt P03372); assay: Breast Cancer Cell ER-α In Cell Western Assay (SP1); type: cell-based; settings: 4 or 24 hr post compound addition; for Emax: MCF7, SP1 antibody, read-out: ER-α In Cell Western Assay (SP1) Max Response; for DC50: SP1 antibody, read-out: ER-α In Cell Western Assay (SP1) IC50
T1 construct: endogenous in cells; host or cells: MCF-7
T1 sequence (P03372 1-595): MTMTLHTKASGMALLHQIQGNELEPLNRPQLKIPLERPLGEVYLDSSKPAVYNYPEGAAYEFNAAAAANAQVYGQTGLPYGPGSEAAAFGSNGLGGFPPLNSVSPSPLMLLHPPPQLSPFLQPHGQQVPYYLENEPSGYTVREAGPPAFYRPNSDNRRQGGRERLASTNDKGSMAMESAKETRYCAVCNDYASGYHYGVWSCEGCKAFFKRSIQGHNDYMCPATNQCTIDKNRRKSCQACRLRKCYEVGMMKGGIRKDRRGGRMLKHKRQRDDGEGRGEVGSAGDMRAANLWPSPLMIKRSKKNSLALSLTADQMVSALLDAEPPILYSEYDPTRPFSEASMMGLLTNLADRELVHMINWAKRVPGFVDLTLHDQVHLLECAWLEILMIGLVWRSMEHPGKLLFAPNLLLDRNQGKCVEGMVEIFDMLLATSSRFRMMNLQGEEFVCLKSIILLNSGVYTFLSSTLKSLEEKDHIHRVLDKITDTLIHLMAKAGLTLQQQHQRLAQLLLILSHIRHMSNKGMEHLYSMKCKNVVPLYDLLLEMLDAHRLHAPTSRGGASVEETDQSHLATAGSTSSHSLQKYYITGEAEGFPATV
How it was run: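 ER-α levels quantified by in-cell western: SP1 signal normalised to DRAQ5 DNA stain, relative to untreated cells (% ER). Compounds at 0.3–0.000003 μM final, 11-point semilog series, 4 or 24 h exposure of MCF-7 cells grown in charcoal-stripped serum.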

MCF-7 cells = assay: Breast Cancer Cell Viability Assays (MCF-7, CellTiter-Glo); type: cell-based; settings: 5 days' compound exposure; for IC50: Homo sapiens, MCF7, 120 h
How it was run: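 Percent viability, background-subtracted against untreated wells, was taken from CellTiter-Glo luminescence after 5 days' exposure of MCF-7 cells. Compounds were tested at eleven semilog concentrations, final 0.3–0.000003 μM, in RPMI containing 10% FBS.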

SMILES	Emax (ER-α in MCF-7 cells)	DC50 (ER-α in MCF-7 cells)	IC50 (MCF-7 cells)	MCF7 Viability Assay Max Response (MCF-7 cells)
COc1ccc(/C(=C(\c2ccc(/C=C/C(=O)O)cc2)c2ccc3[nH]nc(F)c3c2)C2CCC2)c(Cl)c1 [Example 67, (E)-3-(4-((E)-2-(2-Chloro-4-methoxyphenyl)-2-cyclobutyl-1-(3-fluoro-1H-indazol-5-yl)vinyl)phenyl)acrylic acid]	≥ 40%	≤ 100 nM	≤ 100 nM	++ (++ = a single % value ≧ 40%)
CSc1ccc(/C(=C(\c2ccc(/C=C/C(=O)O)cc2)c2ccc3[nH]nc(F)c3c2)C2CCC2)c(Cl)c1 [Example 73, (E)-3-(4-((E)-2-(2-Chloro-4-(methylthio)phenyl)-2-cyclobutyl-1-(3-fluoro-1H-indazol-5-yl)vinyl)phenyl)acrylic acid]	≥ 40%	≤ 100 nM	≤ 100 nM	++ (++ = a single % value ≧ 40%)
N#Cc1cnccc1/C(=C(\c1ccc(/C=C/C(=O)O)cc1)c1ccc2[nH]nc(F)c2c1)C1CCC1 [Example 74, (E)-3-(4-((E)-2-(3-Cyanopyridin-4-yl)-2-cyclobutyl-1-(3-fluoro-1H-indazol-5-yl)vinyl)phenyl)acrylic acid]	≥ 40%	≤ 100 nM	≤ 100 nM	++ (++ = a single % value ≧ 40%)
O=C(O)/C=C/c1ccc(/C(=C(\c2ccc(F)cc2Cl)C2CCC2)c2cc3ccccc3o2)cc1 [Example 75, (E)-3-(4-((E)-1-(Benzofuran-2-yl)-2-(2-chloro-4-fluorophenyl)-2-cyclobutylvinyl)phenyl)acrylic acid]	≥ 40%	≤ 100 nM	≤ 100 nM	++ (++ = a single % value ≧ 40%)
COc1cccc2c(/C(=C(/c3ccc(F)cc3Cl)C3CCC3)c3ccc(/C=C/C(=O)O)cc3)coc12 [Example 76, (E)-3-(4-((E)-2-(2-Chloro-4-fluorophenyl)-2-cyclobutyl-1-(7-methoxybenzofuran-3-yl)vinyl)phenyl)acrylic acid]	≥ 40%	≤ 100 nM	≤ 100 nM	++ (++ = a single % value ≧ 40%)
O=C(O)/C=C/c1ccc(/C(=C(\c2ccncc2Cl)C2CCC2)c2cc3ccccc3o2)cc1 [Example 77, (E)-3-(4-((E)-1-(Benzofuran-2-yl)-2-(3-chloropyridin-4-yl)-2-cyclobutylvinyl)phenyl)acrylic acid]	≥ 40%	≤ 100 nM	≤ 100 nM	++ (++ = a single % value ≧ 40%)
COc1cccc2c(/C(=C(/c3ccncc3Cl)C3CCC3)c3ccc(/C=C/C(=O)O)cc3)coc12 [Example 78, (E)-3-(4-((E)-2-(3-Chloropyridin-4-yl)-2-cyclobutyl-1-(7-methoxybenzofuran-3-yl)vinyl)phenyl)acrylic acid]	≥ 40%	≤ 100 nM	≤ 100 nM	++ (++ = a single % value ≧ 40%)
O=C(O)/C=C/c1ccc(/C(=C(\c2ccc(F)cc2Cl)C2CCC2)c2ccc3[nH]nnc3c2)cc1 [Example 79, (E)-3-(4-((E)-1-(1H-Benzo[d][1,2,3]triazol-5-yl)-2-(2-chloro-4-fluoro-phenyl)-2-cyclobutylvinyl)phenyl)acrylic acid]	≥ 40%	≤ 100 nM	≤ 100 nM	++ (++ = a single % value ≧ 40%)
O=C(O)/C=C/c1ccc(/C(=C(\c2ccc(F)cc2Cl)C2CCC2)c2cccc3[nH]ncc23)cc1 [Example 80, (E)-3-(4-((E)-2-(2-Chloro-4-fluorophenyl)-2-cyclobutyl-1-(1H-indazol-4-yl)vinyl)phenyl)acrylic acid]	≥ 40%	≤ 100 nM	≤ 100 nM	++ (++ = a single % value ≧ 40%)
N#Cc1cscc1/C(=C(\c1ccc(/C=C/C(=O)O)cc1)c1ccc2[nH]nc(F)c2c1)C1CCC1 [Example 82, (E)-3-(4-((E)-2-(4-Cyanothiophen-3-yl)-2-cyclobutyl-1-(3-fluoro-1H-indazol-5-yl)vinyl)phenyl)acrylic acid]	≥ 40%	≤ 100 nM	≤ 100 nM	++ (++ = a single % value ≧ 40%)
Cc1cnccc1/C(=C(\c1ccc(/C=C/C(=O)O)cc1)c1ccc2scnc2c1)C1CCC1 [Example 83, (E)-3-(4-((E)-1-(Benzo[d]thiazol-5-yl)-2-cyclobutyl-2-(3-methylpyridin-4-yl)vinyl)phenyl)acrylic acid]	≥ 40%	≤ 100 nM	≤ 100 nM	++ (++ = a single % value ≧ 40%)
O=C(O)/C=C/c1ccc(/C(=C(\c2cccc(-n3cccn3)c2)C2CCC2)c2ccc3[nH]nc(F)c3c2)cc1 [Example 84, (E)-3-(4-((E)-2-(3-(1H-Pyrazol-1-yl)phenyl)-2-cyclobutyl-1-(3-fluoro-1H-indazol-5-yl)vinyl)phenyl)acrylic acid]	≥ 40%	≤ 100 nM	≤ 100 nM	++ (++ = a single % value ≧ 40%)
COc1cc(C)c(/C(=C(\c2ccc(/C=C/C(=O)O)cc2)c2ccc3scnc3c2)C2CCC2)cn1 [Example 85, (E)-3-(4-((E)-1-(Benzo[d]thiazol-5-yl)-2-cyclobutyl-2-(6-methoxy-4-methylpyridin-3-yl)vinyl)phenyl)acrylic acid]	≥ 40%	≤ 100 nM	≤ 100 nM	++ (++ = a single % value ≧ 40%)
Cc1sccc1/C(=C(\c1ccc(/C=C/C(=O)O)cc1)c1ccc2scnc2c1)C1CCC1 [Example 86, (E)-3-(4-((E)-1-(Benzo[d]thiazol-5-yl)-2-cyclobutyl-2-(2-methylthiophen-3-yl)vinyl)phenyl)acrylic acid]	≥ 40%	≤ 100 nM	≤ 100 nM	++ (++ = a single % value ≧ 40%)

Now from value to compound, other results behind:

Emax (ER-α in MCF-7 cells)	DC50 (ER-α in MCF-7 cells)	IC50 (MCF-7 cells)	SMILES	MCF7 Viability Assay Max Response (MCF-7 cells)
≥ 40%	≤ 100 nM	≤ 100 nM	COc1ccc(/C(=C(\c2ccc(/C=C/C(=O)O)cc2)c2ccc3[nH]nc(F)c3c2)C2CCC2)c(F)c1 [Example 68, (E)-3-(4-((E)-2-Cyclobutyl-1-(3-fluoro-1H-indazol-5-yl)-2-(2-fluoro-4-methoxyphenyl)vinyl)phenyl)acrylic acid]	++ (++ = a single % value ≧ 40%)
≥ 40%	≤ 100 nM	≤ 100 nM	COc1ccc(/C(=C(\c2ccc(/C=C/C(=O)O)cc2)c2ccc3[nH]nc(F)c3c2)C2CCC2)c(C)n1 [Example 69, (E)-3-(4-((E)-2-Cyclobutyl-1-(3-fluoro-1H-indazol-5-yl)-2-(6-methoxy-2-methylpyridin-3-yl)vinyl)phenyl)acrylic acid]	++ (++ = a single % value ≧ 40%)
≥ 40%	≤ 100 nM	≤ 100 nM	CC/C(=C(/c1ccc(/C=C/C(=O)O)cc1)c1ccc2[nH]nc(F)c2c1)c1ccc(OC)nc1C [Example 70, (E)-3-(4-((E)-1-(3-Fluoro-1H-indazol-5-yl)-2-(6-methoxy-2-methylpyridin-3-yl)but-1-en-1-yl)phenyl)acrylic acid]	++ (++ = a single % value ≧ 40%)
≥ 40%	≤ 100 nM	≤ 100 nM	CC/C(=C(/c1ccc(/C=C/C(=O)O)cc1)c1ccc2[nH]nc(F)c2c1)c1cnc(OC)cc1C [Example 71, (E)-3-(4-((E)-1-(3-Fluoro-1H-indazol-5-yl)-2-(6-methoxy-4-methylpyridin-3-yl)but-1-en-1-yl)phenyl)acrylic acid]	++ (++ = a single % value ≧ 40%)
≥ 40%	≤ 100 nM	≤ 100 nM	CSc1ccc(/C(=C(\c2ccc(/C=C/C(=O)O)cc2)c2ccc3[nH]nc(F)c3c2)C2CCC2)c(C)c1 [Example 72, (E)-3-(4-((E)-2-Cyclobutyl-1-(3-fluoro-1H-indazol-5-yl)-2-(2-methyl-4-(methylthio)phenyl)vinyl)phenyl)acrylic acid]	++ (++ = a single % value ≧ 40%)
≥ 40%	≤ 100 nM	≤ 100 nM	COc1cc(/C(=C(\c2ccc(/C=C/C(=O)O)cc2)c2ccc3[nH]nc(F)c3c2)C2CCC2)ccn1 [Example 81, (E)-3-(4-((E)-2-Cyclobutyl-1-(3-fluoro-1H-indazol-5-yl)-2-(2-methoxypyridin-4-yl)vinyl)phenyl)acrylic acid]	++ (++ = a single % value ≧ 40%)
